# From the METLIN SMRT retention time set (Domingo-Almenara et al. 2019)
# Assay: gradient 5% acetonitrile 3 min, to 50% in 2 min, to 85% in 15 min, held 3 min, 100 µL/min
# Conditions: column: Zorbax Extend-C18 2.1 x 50 mm; eluents: water / acetonitrile, 0.1% formic acid
# Method in brief: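 Retention times come from adduct peaks that were picked computationally and then checked by hand. The standards, pure and pooled in mixtures of ~100 molecules, were run on a Zorbax Extend-C18 column (2.1 × 50 mm, 1.8 μm) at 100 μL/min with water and acetonitrile, each with 0.1% formic acid. Detection was by quadrupole time-of-flight mass spectrometry in positive and negative ionization mode, with a dead volume of 40 μL and a dwell volume of 900 μL.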
row,RP-LC retention time [s],Structure (SMILES)
1,870,COc1cccc(NC(=O)NCCC2CCN(S(=O)(=O)c3ccccc3)CC2)c1
2,819,CCCCNC(=O)C1CCN(c2ccc(Sc3cc(C)ccc3C)nn2)CC1
3,796,CCn1nc(CNC(=O)c2ccccn2)c2ccccc21
4,660,CCOc1cc(CNC(=O)c2nc(N3CCOCC3)c3ccccc3n2)ccc1OC
5,790,CCOc1ccc(C(=O)N2CCC3(CC2)NC(=O)c2cccc(Cl)c2N3)cc1
6,844,CCCn1nc(CNC(=O)c2ccc(C#N)cc2)c2ccccc21
7,699,CC(NC(=O)C1CCN(Cc2cn(C)c3ccccc23)CC1)c1ccc(F)cc1 (centres undefined)
8,552,CCOC(=O)C(=O)NCC1CCC(c2nc3ccccc3n2C)CC1 (centres undefined)
9,649,CCOc1ccc(NC(=O)N2CCN(CCn3c(C(F)(F)F)nc4cccnc43)CC2)cc1
10,787,COC(=O)C1=CN(c2ccccc2)c2cc(F)ccc2S1(=O)=O
11,964,CN1CCCc2cc(C(=O)NCc3ccccc3Cl)sc21
12,816,CCc1noc(-c2cc(=O)n(CC(=O)NC(C)CC)c3ccccc23)n1 (centres undefined)
13,804,O=C(NC1CC1)c1ccc2c(c1)CCCN2S(=O)(=O)c1ccccc1
14,864,O=C1NCCCCCN(C(=O)Cn2c(=O)oc3ccccc32)[C@@H]2C[C@@H](C(=O)N3CCc4ccccc4C3)C[C@H]12
15,686,COc1cccc(CN2CCC(Oc3ccccc3-c3nc(-c4ccncc4)no3)C2)n1 (centres undefined)
16,851,Cc1cc(C)cc(NC(=O)C2CCN(S(=O)(=O)c3ccc4[nH]c(=O)sc4c3)CC2)c1
17,757,O=C(NCc1ccccc1C(F)(F)F)c1cn2ccccc2n1
18,689,CC(C)NC(=O)C1CCN(c2cnn(Cc3ccccc3)c(=O)c2)CC1
19,1310,CN(C)c1nc(Nc2ccc(F)cc2)c2cnn(-c3ccccc3)c2n1
20,543,Cc1ccc(OCC(=O)NCC2CCN(Cc3ccncc3)CC2)cc1
21,720,Nc1nc(-c2nn(Cc3ccccc3F)c3ncccc23)ncc1C1CC1
22,1110,O=C(NCc1cccs1)c1nc(-c2ccc(N3CCCC3)cc2)no1
23,689,Cc1ccccc1CNC(=O)Cc1cn(C)c2ncccc12
24,578,O=C(C1COc2ccccc2O1)N1CCN(Cc2nc3ccccc3[nH]2)CC1 (centres undefined)
25,944,CCOc1ccc2nc(NC(=O)Cn3nc(C(=O)N4CCCCC4)c4ccccc43)sc2c1
26,718,O=C(CSc1nc2ccccc2o1)NCCn1nc(-c2cccs2)ccc1=O
27,558,O=C(Cc1csc(-n2cccc2)n1)N1CCC(c2nc3ccccc3[nH]2)CC1
28,1060,CCn1cc2c3c(cccc31)CN(C(=O)Nc1cccc(Cl)c1F)CC2

# The next lines start with the compound.
row,Structure (SMILES),RP-LC retention time [s]
1,CCOc1cccc(-c2noc(Cn3c(=O)n(CCc4ccccc4)c(=O)c4sccc43)n2)c1,660
2,Cc1cccc(NC(=O)N2[C@H]3CC[C@@H]2c2cnc(-c4ccccc4)nc2C3)c1,982
3,Fc1ccccc1-c1nc(-c2cn(-c3ccccc3)nn2)no1,1230
4,Cc1noc([C@@H]2CN(C(=O)c3cc(C4CC4)[nH]n3)C[C@H]2C(N)=O)n1,596
5,Cn1c(=O)c(N2CCCC(C(=O)NCCCN3CCCCCC3)C2)nc2cccnc21 (centres undefined),581
6,COc1ccc(-c2nc(-c3ccc4nnn(C(C)C)c4c3)no2)cc1OC,1020
7,COc1ccc(-c2nnc3sc(-c4ccc(N(C)C)cc4)nn23)cc1,1200
8,CCc1ccc(-c2ccc(-n3nc(C)c(S(=O)(=O)N4CCC(C)CC4)c3C)nn2)cc1,1350
9,CC1CCCN(c2ccn3c(=O)n(CC(=O)Nc4ccc(F)c(Cl)c4)nc3n2)C1 (centres undefined),834
10,CCc1ccc(C2=C(C)C(N3CCCN(C(=O)NC(C)C)CC3)=NS2(=O)=O)cc1,849
11,O=C1c2cccc3c2[C@@H](CCC3)CN1[C@@H]1CN2CCC1CC2,664
12,COc1cccc(S(=O)(=O)N2CCc3nc[nH]c3C2)c1,602
13,CCCNC(=O)N1CCCC1c1nc(-c2ccccc2)no1 (centres undefined),816
14,Cn1nc2n(c1=O)CCC(NC(=O)c1cc(C3CC3)[nH]n1)CC2 (centres undefined),586
15,Fc1cccc(/C=N/N=C/c2cccc(F)c2)c1,1290
16,Cc1cc2[nH]c(C(=O)Nc3cccc(F)c3C)c(CN3CCOCC3)c2s1,731
17,CCOc1ccc(-n2nnnc2CNS(=O)(=O)c2ccc(CC)s2)cc1,949
18,O=C(c1csc(N2CCN(c3ccc(F)cc3)CC2)n1)N1CCCCC1,1000
19,CCS(=O)(=O)N1CC(=O)N(Cc2ccc(Cl)cc2)C(C)(C(=O)NC2CCCCCCC2)C1 (centres undefined),1040
20,COc1ccccc1-c1noc(Cn2ccn3nc(-c4ccc(Cl)cc4)cc3c2=O)n1,1040
21,c1ccc2c(c1)nnn1c3cnccc3nc21,606

row,Structure (SMILES),RP-LC retention time [s]
1,Cc1cc(C)cc(NC(=O)Cn2c(=O)n(-c3ccc(F)cc3)c(=O)c3c2cc(C)n3C)c1,879
2,O=C(NCCc1csc(-c2cccc(F)c2)n1)c1ccc2c(c1)OCO2,847
3,COc1ccc(C2(C(=O)N3CCC(n4c(C)cnc4C4CCC4)CC3)CC2)cc1,662
4,O=C([C@@H]1C[C@H](F)CN1S(=O)(=O)c1cccs1)N1CCc2ccccc2C1,830
5,O=S(=O)(Nc1ccc(F)cc1)c1cccc(-c2nc(-c3ccccc3)no2)c1,1120
6,Cc1nn(Cc2nc(-c3ccc(NC(=O)C4CCCC4)cc3)oc2C)c(C)c1C,860
7,O=C(Nc1c(-c2ccccc2)nc2ccccn12)c1cccc([N+](=O)[O-])c1,596
8,COc1ccc(OC)c(CN2C[C@@H]3C(=O)N(C)C(=O)[C@@H]3C2)c1,574
9,CCN1C(=O)COc2ccc(-c3noc(-c4ccc(C)c(C)c4)n3)cc21,1300
10,Cc1ccc(S(=O)(=O)N2CC(c3noc(C)n3)C3(CCOCC3)C2)c(C)c1 (centres undefined),888
11,Brc1ccccc1Cc1nc(-c2ccc3nncn3c2)no1,724
12,COc1ccc(Cc2nc(-c3ccc4nnc(C)n4c3)no2)cc1Cl,822
13,Cc1ccc(C)c(CN2C[C@@H]3C(=O)N(C)C(=O)[C@@H]3C2)c1,611
14,Cc1ccc2c(=O)c(C(=O)N3CCOCC3)cn(CC(=O)NCCC3=CCCCC3)c2n1,713
15,CCn1c(=O)oc2cc(-c3noc(-c4cc(C)cc(C)c4)n3)ccc21,1300
16,O=C(NC1CC1)c1nnc(-c2ccc(S(=O)(=O)N3CCCC3)cc2)o1,730
17,CCS(=O)(=O)c1cccc(C(=O)Nc2nnc(-c3ccsc3)o2)c1,662
18,CCN1CCN(C(=O)C(C)n2c(=O)c(C(F)(F)F)nc3cc(C)c(C)cc32)CC1 (centres undefined),702
19,COc1ccc2c(c1)C1(CCN(C(=O)CC(C)(C)C)C1)C(=O)N2C (centres undefined),782
20,CCCn1cc(CCNC(=O)Nc2ccc(C)cc2C)c2cccnc21,781
21,O=C(Cc1ccc(Cl)cc1)N1CCCN(C2CCN(CC3CC3)C2=O)CC1 (centres undefined),581

row,Structure (SMILES),RP-LC retention time [s]
1,Cn1ncc2c(N3CCSCC3)nc(C(=O)Nc3cccc(OC(F)(F)F)c3)nc21,1010
2,COc1ccc(NC(=O)CCc2cccc3[nH]ccc23)c(OC)c1,831
3,CC(C)NC(=O)C1CCCN(c2nc3ncn(CC(=O)Nc4ccc(F)c(F)c4)c(=O)c3s2)C1 (centres undefined),716
4,O=C(c1ccncc1)N1CC(C(=O)N2CCN(c3ccccn3)CC2)C2(CCCCC2)C1 (centres undefined),570
5,COc1ccc(CC(=O)N2CCn3cnnc3C2)cc1Cl,621
6,Cc1cc(-c2c(C)sc(C)c2S(=O)(=O)NCCc2ccc(Cl)cc2)n[nH]1,1130
7,Cc1ccc(CN2CCN(CC(=O)N3CCC4(CC3)OCCO4)C(=O)C2=O)cc1,653
8,COc1cc(NS(=O)(=O)c2cc3n(c2)CCCN(C)C3=O)cc(OC)c1,672
9,CCOC(=O)c1ccccc1NC(=O)Cn1nc2c(Sc3ccccc3)nccn2c1=O,1060
10,O=C1CC(c2cccc(Cl)c2)Cc2nc(N3CCN(c4ccccc4)CC3)ncc21 (centres undefined),1340
11,Cc1ccc2[nH]c(=O)c(CCC(=O)NCc3ccccn3)cc2c1,596
12,CCN(C(=O)c1ccc(C(C)(C)C)cc1)c1nc(-c2ccccc2)cs1,949
13,COc1ccc(Cl)cc1S(=O)(=O)NC1CCc2nn(C)c(=O)n2CC1 (centres undefined),677
14,Cc1ccc(NC(=O)Cn2nc(C)cc2C(=O)Nc2ccc3c(c2)OCCO3)cc1,834
15,Cc1ccc(-c2ccc(-n3nc(C)c(S(=O)(=O)NC4CC4)c3C)nn2)cc1,944
16,Cc1cc(C)cc(OCC(=O)N2CCCCC2CCN2CCOCC2)c1 (centres undefined),668
17,CCOc1ccc(NC(=O)Nc2nccn(-c3ccc(OC)cc3)c2=O)cc1,935
18,CCc1nc2cc(N3CCCC(C(=O)NCc4cccnc4)C3)cnc2nc1CC (centres undefined),600
19,C[C@@H](Oc1ccc(S(C)(=O)=O)cc1C(=O)N1CCN(c2ncc(C(F)(F)F)cc2F)CC1)C(F)(F)F,1090
